{"source": "patent US9526705B2", "about": "“Lipidated glycosaminoglycan particles and their use in drug and gene delivery for diagnosis and therapy” (Tel-Aviv University Future Technology Development L.P., priority 2001, dated 2016)", "key": {"[1]": {"assay": "Efficiency of entrapment in gagomers (absorbency, ELISA plate reader)", "assay_type": "physicochemical", "description": "The efficiency of entrapment of drugs or other bioactive agents in the gagomers and the kinetics of drug efflux for small molecular weight drugs were determined using absorbency in an ELISA plate reader, with appropriate wavelengths for each given entrapped entity."}, "[2]": {"details": "calculated from efflux rate constant, 50 minutes incubation", "from_the_text": "The independent variable is time. The dependent variable (f) is the percentage of drug released at time=t with respect to the total drug in the system at time t=0."}, "B16F10 (mouse melanoma)": {"tested_on": "B16F10 (mouse melanoma)", "assay": "Tumor metastasis model: lung metastases after i.v. B16F10 cells", "assay_type": "in vivo, C57BL/6 mice", "details": "day 21", "description": "C57BL/6 female mice were used, which were 12 weeks old at initiation of the experiment. […] The DDS system was LLG in the form of nano particles. The test system was MMC formulated in the novel DDS of the present invention, denoted MMC/DDS.\nGroup 1 is a control group of healthy mice that were not inoculated with tumor cells.\nB16F10 cells were grown in cell culture flasks. […] The injected dose was 5×10^5 cells in 50 μl PBS.\nTreatments were given on days 1, 5 and 9. […] All injected volumes were 0.1 ml. The experiment was terminated 21 days post tumor inoculation. The animals were sacrificed, and the lungs were removed, weighed, and fixed in Bouin's solution. Lung weight increase was calculated using the following formula: Lung weight increase(%)=100×(tumor lung weight−normal lung weight)/normal lung weight Surface metastases were counted by an expert using a dissecting microscope.\nQuantitative evaluation of metastases in the lungs can be performed by two independent measurements: actual counting of the metastases in excised and properly fixed lungs; and/or measurement of the increase in the weight of the lungs due to the metastases in the animals injected with tumor cells. Both techniques were implemented in the present study."}, "[3]": {"tested_on": "cell line C26 (mouse colon carcinoma)", "details": "4 hours exposure, viable cells 24 hours from start, MMC 30 and 50 μg/ml", "from_the_text": "This is an inherent multidrug resistant (MDR) line originating from mouse colon carcinoma."}, "[4]": {"tested_on": "C-26 cells (mouse colon carcinoma)", "details": "Run 1", "method": "Female BALB/c mice which were 8 weeks old at initiation of the experiment were used. The tumor model employed was C-26 cells (originating from mouse colon carcinoma) injected subcutaneously into the right hind footpad. […] The MMC dose was 2 mg/kg body, in both free and DDS formulations and the DDS dose was 1 mg/ml.\nTo provide the tumor, C-26 cells were grown in cell culture flasks. At day zero, the cells were harvested, washed several times, counted and immediately injected. The injected dose was 8×10^5 cells in 30 μl.\n(§1) Treatments were given on days 5, 12 and 19. Administration was by injection into the tail vein. All injected volumes were 0.1 ml.\nParameters measured for Run 1 were retention in circulation, tumor onset, tumor volume, survival. Parameters measured for Run 2 were survival."}, "[5]": {"details": "i.v. tail vein, MMC 2 mg/kg", "method": "Female BALB/c mice which were 8 weeks old at initiation of the experiment were used. […] The MMC dose was 2 mg/kg body, in both free and DDS formulations and the DDS dose was 1 mg/ml.\nas §1\nAt selected periods post-injection, animals receiving drug-containing formulations were bled, and samples were treated according to established protocols. MMC concentration was determined by HPLC assay."}, "[6]": {"tested_on": "MCF7 cells (human breast carcinoma)", "assay": "BSA-FITC entry into cells, confocal microscopy", "assay_type": "cell-based", "details": "MCF7, 3.3 mg/ml, 25° C., 60 minutes", "description": "Bovine serum albumin tagged with the fluorescent marker FITC (BSA-FITC) in both free form and entrapped in the DDS was used to determine whether DDS can also induce the entry of large macromolecules into cells. The free and the DDS-entrapped BSA-FITC were incubated at 25° C. for 60 minutes with confluent monolayers of MCF7 cells (originating from human breast carcinoma). MCF-7 cells are reported to have two known receptors for hyaluronic acid—ICAM-1 and CD44. The protein/DDS systems were cleaned from the free protein. The free and the entrapped protein were at the same concentration: 3.3 mg/ml. At the end of the incubation the cells were viewed by means of confocal microscopy."}}}
{"compound": "O=C(N[C@H](CO)[C@H](O)c1ccc([N+](=O)[O-])cc1)C(Cl)Cl", "note": "[Chloramphenicol]", "values": [{"measurement": "Encapsulation Efficiency (%) By Kinetics", "setting": "[1]; Micro-gagomers", "result": "30.5 ± 1.9", "unit": "%"}, {"measurement": "Encapsulation Efficiency (%) By Thermodynamics", "setting": "[1]; Micro-gagomers", "result": "39.3 ± 3.9", "unit": "%"}, {"measurement": "Encapsulation Efficiency (%) By Kinetics", "setting": "[1]; Nano-gagomers", "result": "47.1 ± 1.5", "unit": "%"}, {"measurement": "Encapsulation Efficiency (%) By Thermodynamics", "setting": "[1]; Nano-gagomers", "result": "47.4 ± 0.3", "unit": "%"}]}
{"compound": "COc1cccc2c1C(=O)c1c(O)c3c(c(O)c1C2=O)C[C@@](O)(C(=O)CO)C[C@@H]3O[C@H]1C[C@H](N)[C@H](O)[C@H](C)O1", "note": "[Doxorubicin, doxorubicin]", "values": [{"measurement": "Encapsulation Efficiency (%) By Kinetics", "setting": "[1]; Micro-gagomers", "result": "50.2 ± 1.2", "unit": "%"}, {"measurement": "Encapsulation Efficiency (%) By Thermodynamics", "setting": "[1]; Micro-gagomers", "result": "52.4 ± 6.3", "unit": "%"}, {"measurement": "Encapsulation Efficiency (%) By Kinetics", "setting": "[1]; Nano-gagomers", "result": "53.6 ± 0.9", "unit": "%"}, {"measurement": "Encapsulation Efficiency (%) By Thermodynamics", "setting": "[1]; Nano-gagomers", "result": "57.0 ± 3.7", "unit": "%"}]}
{"compound": "CC[n+]1c(-c2ccccc2)c2cc(N)ccc2c2ccc(N)cc21", "note": "[EtBr, ethidium bromide]", "values": [{"measurement": "efflux of the entrapped marker in the course of the incubation", "setting": "[2]", "result": "≤ 2", "unit": "%"}]}
{"compound": "CO[C@@]12[C@H](COC(N)=O)C3=C(C(=O)C(C)=C(N)C3=O)N1C[C@@H]1N[C@@H]12", "note": "[Mitomycin C, mitomycin C]", "values": [{"measurement": "increase in lung weight, in words", "setting": "B16F10 (mouse melanoma); saline group close to 400%", "result": "almost the same"}, {"measurement": "number of lung metastases versus saline group", "setting": "B16F10 (mouse melanoma); lungs, MMC 5 mg/Kg", "result": "no statistical difference"}, {"measurement": "cell death (compared to untreated control)", "setting": "[3]", "result": "under 15%"}, {"measurement": "increase in tumor volume / tumor growth rate", "setting": "[4]; 3 i.v. doses", "result": "not much different than in the saline group"}, {"measurement": "day on which tumor was first detected", "setting": "[4]; treatments on days 5, 12 and 19, MMC 2 mg/kg", "result": 7, "unit": "days"}, {"measurement": "retention in circulation", "setting": "[5]", "result": "disappears very quickly from the circulation"}]}
{"compound": "free BSA-FITC: Bovine serum albumin tagged with the fluorescent marker FITC, free form", "values": [{"measurement": "protein entry into the cells", "setting": "[6]", "result": "Some of the protein gained entry into the cell"}, {"measurement": "protein entry into the nucleus", "setting": "[6]", "result": "not inside the nucleus"}]}
{"compound": "α-Interferon", "values": [{"measurement": "Encapsulation Efficiency (%)", "setting": "[1]; DDS microparticles, insulin concentration 10 mg/ml", "result": "72.5 ± 3.7", "unit": "%"}]}
